# Reference: publication PMC8815882, “Screening the pandemic response box identified benzimidazole carbamates, Olorofim and ravuconazole as promising drug candidates for the treatment of eumycetoma” (PLoS Neglected Tropical Diseases, 2022)
# Like-named read-outs stand apart in the source and are kept apart here.
# Test system: M. mycetomatis genome strain MM55
# Assay: CLSI M38-A2 based in vitro susceptibility screening (XTT or resazurin), growth at fixed concentration
# Assay type: cell-based, Madurella mycetomatis
# Details: Madurella mycetomatis; for Percent fungal survival at 100 µM: read-out: Percentage survival at 100um, 100 uM A (second replicate column)
# [1] = 25 uM, mean of three, M. mycetomatis MM55, read-out: Percentage survival at 25um, 25 uM mean
# [2] = 25 uM, replicate A, M. mycetomatis MM55, read-out: Percentage survival at 25um, 25 um A
# [3] = 25 uM, replicate B, M. mycetomatis MM55, read-out: Percentage survival at 25um, 25 uM B
# [4] = 25 uM, replicate C, M. mycetomatis MM55, read-out: Percentage survival at 25um, 25 uM C
# [5] = mean of three, M. mycetomatis MM55, read-out: Percentage survival at 100um, 100 uM mean
# [6] = replicate 1, M. mycetomatis MM55, read-out: Percentage survival at 100um, 100 uM A (first replicate column)
# [7] = replicate 2, M. mycetomatis MM55
# [8] = replicate 3, M. mycetomatis MM55, read-out: Percentage survival at 100um, 100 uM A (third replicate column)
# [9] = 25 uM, mean of replicates, read-out: Percentage survival at 25um, 25 uM mean
# [10] = 25 uM, replicate A, read-out: Percentage survival at 25um, 25 um A
# [11] = 25 uM, replicate B, read-out: Percentage survival at 25um, 25 uM B
# [12] = 25 uM, replicate C, read-out: Percentage survival at 25um, 25 uM C
# [13] = mean of replicates, read-out: Percentage survival at 100um, 100 uM mean
# [14] = replicate 1, read-out: Percentage survival at 100um, 100 uM A
# [15] = replicate 2, read-out: Percentage survival at 100um, 100 uM A
# [16] = replicate 3, read-out: Percentage survival at 100um, 100 uM A
# [17] = 25 uM, mean of three replicates, read-out: Percentage survival at 25um, 25 uM mean
# [18] = mean of three replicates, read-out: Percentage survival at 100um, 100 uM mean
# [19] = replicate 1, read-out: Percentage survival at 100um, 100 uM A (first replicate column)
# [20] = replicate 3, read-out: Percentage survival at 100um, 100 uM A (third replicate column)
# [21] = 25 uM, mean, read-out: Percentage survival at 25um, 25 uM mean
# [22] = mean, read-out: Percentage survival at 100um, 100 uM mean
# [23] = replicate (first column), read-out: Percentage survival at 100um, 100 uM A
# [24] = replicate (second column), read-out: Percentage survival at 100um, 100 uM A
# [25] = replicate (third column), read-out: Percentage survival at 100um, 100 uM A
Compound,activity at 25 µM [9] [%],activity at 25 µM [10] [%],activity at 25 µM [11] [%],activity at 25 µM [12] [%],activity at 100 µM [13] [%],activity at 100 µM [14] [%],activity at 100 µM [15] [%],activity at 100 µM [16] [%],further results
CO[C@@]1(NC(=O)Cc2cccs2)C(=O)N2C(C(=O)O)=C(COC(N)=O)CS[C@@H]21 [MMV1578559],–,–,–,–,–,–,–,–,activity at 25 µM [1]: 84.2%; activity at 25 µM [2]: 91.6%; activity at 25 µM [3]: 86.2%; activity at 25 µM [4]: 74.6%; activity at 100 µM [5]: 90.3%; activity at 100 µM [6]: 87.3%; Percent fungal survival at 100 µM [7]: 98.4%; activity at 100 µM [8]: 85.1%
CCCCCCCc1[nH]c2ccccc2c(=O)c1O [MMV1578561],–,–,–,–,–,–,–,–,activity at 25 µM [1]: 76.2%; activity at 25 µM [2]: 76.9%; activity at 25 µM [3]: 79.7%; activity at 25 µM [4]: 71.9%; activity at 100 µM [5]: 72.1%; activity at 100 µM [6]: 73.7%; Percent fungal survival at 100 µM [7]: 69.3%; activity at 100 µM [8]: 73.2%
O=S(=O)(Nc1ccccc1)c1ccc(NC(=S)Nc2ccccc2)cc1 [MMV1578562],90,93.2,90.8,86.1,86,96.1,79.6,82.2,–
Fc1ccc2c(/C=C/c3nnn[nH]3)c[nH]c2c1 [MMV1578563],87.2,86.3,93.6,81.6,98.8,96,91.8,109,–
CCc1cc(O)c(Oc2ccc(C(N)=O)cc2F)cc1F [MMV1578564],–,145,87.1,85.3,–,–,–,–,activity at 25 µM [17]: 106%; activity at 100 µM [18]: 80.4%; activity at 100 µM [19]: 82.2%; Percent fungal survival at 100 µM (replicate 2): 78.3%; activity at 100 µM [20]: 80.6%
CSC[C@H]1CN(Cc2c[nH]c3c(N)ncnc23)C[C@@H]1O [MMV1578565],–,–,–,–,–,–,–,–,activity at 25 µM [1]: 80.1%; activity at 25 µM [2]: 86.7%; activity at 25 µM [3]: 77.5%; activity at 25 µM [4]: 76%; activity at 100 µM [5]: 87.9%; activity at 100 µM [6]: 88.9%; Percent fungal survival at 100 µM [7]: 83%; activity at 100 µM [8]: 91.9%
NC[C@H]1OB(O)c2c(OCCCO)cccc21 [MMV1578566],83,83.4,92.5,72.9,97.6,93.8,96.2,103,–
O=c1ccc2ncc(=O)n3c2n1CC3CN1CCC(NCc2cc3c(cn2)OCCC3)CC1 (stereo not shown) [MMV1578568],–,82.6,42.3,75.2,–,–,–,–,activity at 25 µM [21]: 66.7%; activity at 100 µM [22]: 63.3%; activity at 100 µM [23]: 26.3%; activity at 100 µM [24]: 74.3%; activity at 100 µM [25]: 89.2%
O=C1NC(=S)N/C1=C\c1cc(Br)cc(Br)c1O [MMV1578569],85.5,79.8,98.7,77.8,102,103,104,97.5,–
CC(C)(C)c1cc(C(=O)/C(C#N)=N/Nc2cccc(Cl)c2)no1 [MMV1578571],61,95.6,56.3,31.2,6.1,4.87,4.92,8.51,–
COc1cc(NC(=O)CN2C(=O)NC(c3ccccc3)(c3ccccc3)C2=O)cc(OC)c1 [MMV1578572],–,95.2,47.1,73.6,–,–,–,–,activity at 25 µM [21]: 72%; activity at 100 µM [22]: 79.3%; activity at 100 µM [23]: 83.4%; activity at 100 µM [24]: 65.2%; activity at 100 µM [25]: 89.3%
COc1ccc(SCC(=O)N2c3ccccc3Sc3ccccc32)cc1 [MMV1578573],55.5,59.3,58.5,48.8,68.5,43.6,62.3,99.7,–
CN(C)[C@@H]1C(=O)C(C(N)=O)=C(O)[C@@]2(O)C(=O)C3=C(O)c4c(O)c(NC(=O)CN5CCCC5)cc(F)c4C[C@H]3C[C@@H]12 [MMV1578574],74.6,58,94,72,93,92.7,96.8,89.4,–
CC(=O)O[C@H]1C[C@@]2(C)[C@@H](C[C@@H](O)[C@H]3[C@@]4(C)CC[C@@H](O)[C@@H](C)[C@@H]4CC[C@@]32C)/C1=C(\CCC=C(C)C)C(=O)O [MMV1578575],–,–,–,–,–,–,–,–,activity at 25 µM [1]: 83.8%; activity at 25 µM [2]: 96.4%; activity at 25 µM [3]: 83.3%; activity at 25 µM [4]: 71.6%; activity at 100 µM [5]: 84.3%; activity at 100 µM [6]: 78.5%; Percent fungal survival at 100 µM [7]: 89.6%; activity at 100 µM [8]: 84.8%
O=C(Cc1ccccc1F)Nc1nc2ccccc2[nH]1 [MMV1578576],70.6,73.4,74.5,63.8,78.7,102,65.1,69.2,–
O=C(NC12CC3CC(CC(C3)C1)C2)c1cc2ccccc2[nH]1 [MMV1578577],–,79.8,–,–,65.6,59.6,65.1,72.1,"activity at 25 µM (read-out: Percentage survival at 25um, 25 uM B): 67.1%; activity at 25 µM (read-out: Percentage survival at 25um, 25 uM C): 75.7%; activity at 25 µM (read-out: Percentage survival at 25um, 25 uM mean): 74.2%"
O=C(Nc1nnc(-c2ccccc2)o1)c1ccc(F)cc1 [MMV1578578],–,–,–,–,–,–,–,–,activity at 25 µM [1]: 24.9%; activity at 25 µM [2]: 69.5%; activity at 25 µM [3]: 1.3%; activity at 25 µM [4]: 3.74%; activity at 100 µM [5]: 0.7%; activity at 100 µM [6]: -1.02%; Percent fungal survival at 100 µM [7]: 1.69%; activity at 100 µM [8]: 1.43%
COc1ccc(C)cc1NC(=O)c1ccc(S(=O)(=O)N2CCCCC2)cc1 [MMV1578579],–,–,–,–,–,–,–,–,activity at 25 µM [1]: 72.2%; activity at 25 µM [2]: 96.4%; activity at 25 µM [3]: 63%; activity at 25 µM [4]: 57.3%; activity at 100 µM [5]: 71.4%; activity at 100 µM [6]: 69.7%; Percent fungal survival at 100 µM [7]: 77.1%; activity at 100 µM [8]: 67.5%
CCCCOC(=O)Nc1cc2nc(C3CCCCC3)[nH]c2cc1N(CC)CC [MMV1578842],88.1,97.2,93.7,73.4,93.8,93.6,90.8,96.9,–
O=c1cc(NCCCN[C@@H]2CCOc3c(Br)cc(Br)cc32)[nH]c2ccsc12 [MMV1578884],96.9,100,95.5,94.6,88.3,93,86.8,85.3,–
O=c1nc(N2CCN(CC3CCCCC3)CC2)sc2c([N+](=O)[O-])cc(C(F)(F)F)cc12 [MMV1578885],–,84.1,98,89.5,–,–,–,–,activity at 25 µM [17]: 90.5%; activity at 100 µM [18]: 82.7%; activity at 100 µM [19]: 87.8%; Percent fungal survival at 100 µM (replicate 2): 75.6%; activity at 100 µM [20]: 84.8%
c1ccc(Cn2c(-c3ccccn3)nc3ccccc32)cc1 [MMV1578886],60.6,64.1,69.2,48.7,7.34,12,5.19,4.84,–
Fc1ccc2c(/C=C/c3cccnc3)c[nH]c2c1 [MMV1578889],–,86.3,56.6,87.7,–,–,–,–,activity at 25 µM [21]: 76.9%; activity at 100 µM [22]: 58.2%; activity at 100 µM [23]: 83.4%; activity at 100 µM [24]: 19.8%; activity at 100 µM [25]: 71.5%
